In publication PMC7582905, “Effect of Disulfide Cyclization of Ultrashort Cationic Lipopeptides on Antimicrobial Activity and Cytotoxicity” (International Journal of Molecular Sciences, 2020):

Legend:
[1] = tested on: Candida albicans ATCC 10231; test: Transmission electron microscopy (TEM); format: cell-based; details: 2 × MIC, 5.0 × 10^6 CFU/mL, 1 h at room temperature
Procedure: TEM was used to examine ultrastructural changes in the Candida albicans ATCC 10231 cells treated with selected lipopeptides (L2, C2, L4, C4) and melittin (positive control). Fungal cells (Candida albicans ATCC 10231) were incubated in RMPI-1640 overnight. The cells were centrifuged (3500 rpm, 7 min) and resuspended in fresh RMPI-1640 medium to obtain dense cell suspension (5.0 × 10^6 CFU/mL). The high cell-density culture was prepared to facilitate TEM observations. Peptides’ concentrations were 2 × MIC. Samples were incubated for 1 h at room temperature. Importantly, MIC of selected peptides (L2, C2, L4, C4, and melittin) were also determined with dense inoculum of yeasts (5.0 × 10^6 CFU/mL). After the treatment, the fungal cells were centrifuged (3500× rpm, 10 min) and washed twice with PBS. Fungal cells were fixed with 2.5% glutaraldehyde buffered at pH 6.5 with 0.1 M sodium cacodylate (Polysciences, Warrington, PA, USA) for 6 h at room temperature. Postfixation was performed with a 1% osmium tetroxide (Polysciences, Warrington, PA, USA) solution for 2 h at 4 °C. The cells were then centrifuged and resuspended in 0.1 M cacodylate buffer (pH 6.5). After re-centrifugation, cells were dehydrated with ethanol. Yeasts were embedded in Epon 812 resin (Sigma-Aldrich) at room temperature. An ultramicrotome Leica UC7 was used to prepare ultrathin sections (55 nm). […]

C. albicans (ATCC 10231) = details: ref [5] Makovitzki et al.; cited from earlier work
Description: When a peptide is cyclic its antifungal activity is usually remarkably higher than that of the antibacterial activity as compared that of the linear parent molecules. The differences in antifungal and antibacterial (Gram-negative) activities between the cyclic and linear lipopeptides are statistically significant (p < 0.05). Makovitzki et al. have reported a high antimicrobial activity of C16-KKkK-NH2 (originally written as C16-KKKK-NH2; k/K—D-enantiomer) against P. aeruginosa, E. coli, and S. aureus (3–6.25 μM; approx. 2.3–4.8 μg/mL) being similar to that of lipopeptide 3. However, different ...

| Molecule | ultrastructural changes in TEM micrographs [1] | MIC C. albicans (ATCC 10231) (C. albicans (ATCC 10231)) [µM] |
| --- | --- | --- |
| CC[C@H](C)[C@H](NC(=O)CN)C(=O)NCC(=O)N[C@@H](C)C(=O)N[C@H](C(=O)N[C@@H](CC(C)C)C(=O)N[C@@H](CCCCN)C(=O)N[C@H](C(=O)N[C@@H](CC(C)C)C(=O)N[C@H](C(=O)N[C@H](C(=O)NCC(=O)N[C@@H](CC(C)C)C(=O)N1CCC[C@H]1C(=O)N[C@@H](C)C(=O)N[C@@H](CC(C)C)C(=O)N[C@H](C(=O)N[C@@H](CO)C(=O)N[C@@H](Cc1c[nH]c2ccccc12)C(=O)N[C@H](C(=O)N[C@@H](CCCCN)C(=O)N[C@@H](CCCNC(=N)N)C(=O)N[C@@H](CCCCN)C(=O)N[C@@H](CCCNC(=N)N)C(=O)N[C@@H](CCC(N)=O)C(=O)N[C@@H](CCC(N)=O)C(N)=O)[C@@H](C)CC)[C@@H](C)CC)[C@@H](C)O)[C@@H](C)O)C(C)C)C(C)C [melittin, Melittin, reference compound] | numerous vesicles are visible inside and outside the cell |  |
| C16-KKkK-NH2 |  | 25 |
